Test results published in the RepoRT retention time repository (doi:10.1021/acs.analchem.1c00972).

Key:
[1] = RP, Waters ACQUITY UPLC BEH C18, 100 × 1 mm, 1.7 µm, 50 °C, 0.3 mL/min, estimated dead time 0.17 min; A: water + 10 mM ammonium bicarbonate; B: 10% water + 90% methanol + 10 mM ammonium bicarbonate; gradient (min/%B) 0/0 15/100 21/100 22/0 30/0; settings: stereoisomer not certain
[2] = RP, Waters ACQUITY UPLC BEH C18, 100 × 1 mm, 1.7 µm, 50 °C, 0.3 mL/min, estimated dead time 0.17 min; A: water + 0.1% formic acid + 20 mM ammonium formate; B: methanol + 0.1% formic acid + 20 mM ammonium formate; gradient (min/%B) 0/0 15/100 21/100 22/0 30/0; settings: stereoisomer not certain

LC retention time [1] [min]	LC retention time [2] [min]	SMILES
14.6	9.43	CCC12CCCN3CCc4c(n(c5ccccc45)C(O)(C(=O)OC)C1)C32 (stereo not given) [Vincamin]
16.5	15.4	COC(=O)C(c1ccccc1Cl)N1CCc2sccc2C1 (stereo not given) [Clopidogrel]
6.95	8.56	Cn1c(=O)nc(NC(C)(C)C)[nH]c1=O
16.7	13.9	c1ccc(-c2ccc(C(c3ccccc3)n3ccnc3)cc2)cc1 (stereo not given) [Bifonazol]
7.24	5.17	CC(=O)N(C)c1ccc(N)cc1 [N-(4-Aminophenyl)-N-methyl-acetamid]
16.5	16.1	O=C1CCCCCCCCCCC1 [Cyclododecanone]
18.2	17.8	CCCCC(CC)COC(=O)C(C#N)=C(c1ccccc1)c1ccccc1 (stereo not given) [Octocrylene]
15.5	10.1	COC(=O)C1=COC(C)C2CN3CCc4c([nH]c5ccccc45)C3CC12 (stereo not given) [Ajmalicine]
14.4	14.1	CC1CC2C3CCC4=CC(=O)C=CC4(C)C3(F)C(O)CC2(C)C1(O)C(=O)CCl (stereo not given) [Clobetasol]
5.86	5.9	Cn1cnc2c1c(=O)[nH]c(=O)n2C [Theobromine]
10.7	13.7	O=C(O)Cc1ccccc1Nc1c(Cl)cc(O)cc1Cl [4-Hydroxy-Diclofenac]
11.2	11	CC(=O)Nc1cc(Cl)ccc1C [5'-CHLORO-2'-METHYLACETANILIDE]
6.78	8.73	O=c1ccc2ccc(O)cc2o1 [Umbelliferone]
16.6	14.1	CCC1OC(=O)C(C)C(OC2CC(C)(OC)C(O)C(C)O2)C(C)C(OC2OC(C)CC(N(C)C)C2O)C(C)(OC)CC(C)C(=O)C(C)C(O)C1(C)O (stereo not given) [Clarithromycin]
10.7	6.44	OCC(O)CN1CCN(c2ccccc2)CC1 (stereo not given) [Dropropizine]
11.9	11.7	CC1=CC(=O)CC(C)(C)C1 [Isophorone]
14.6	8.84	c1ccc2nc3ccccc3cc2c1 [Acridin]
11.8	8.13	CC(=O)OC1CCN2CC=C(COC(=O)C(O)(C(C)C)C(C)O)C12 (stereo not given) [7-Acetyllycopsamine]
9.93	9.79	O=c1ccc2ccccc2o1 [Coumarin]
6.66	7.88	c1ccc2n[nH]nc2c1 [1H-Benzotriazole]
13.5	13.2	CC1CC2C3CC(F)C4=CC(=O)C=CC4(C)C3C(O)CC2(C)C1(O)C(=O)CO (stereo not given) [Paramethasone]
14.8	13.6	O=C(O)COCCN1CCN(C(c2ccccc2)c2ccc(Cl)cc2)CC1 (stereo not given) [Cetirizine]
10.2	6	CC=C1CC2(CO)OC2(C)C(=O)OCC2=CCN3CCC(OC1=O)C23 (stereo not given) [Erucifoline]

Further lines, the compound ahead of its results:

SMILES	LC retention time [1] [min]	LC retention time [2] [min]
O=C(O)c1nc(Cl)ccc1Cl [Clopyralid]	3.37	6.09
CC1CCCC(O)CCCC=Cc2cc(O)cc(O)c2C(=O)O1 (stereo not drawn) [beta Zearalenol]	13.3	13.4
CC(C)c1ccc2sc3ccccc3c(=O)c2c1 [2-Isopropylthioxanthone]	17.5	17.2
S=c1[nH]c2ccccc2s1 [2-Mercaptobenzothiazole]	8.11	11
CC(C)C1(C)N=C(c2ncccc2C(=O)O)NC1=O (stereo not given) [Imazapyr]	5.24	8.89
CC12CCC3C(CCC4=CC(=O)CCC43C)C1CCC2=O (stereo not given) [4-Androstene-3,17-dione]	14.2	14
COc1ccc2cc(C(C)C(=O)O)ccc2c1 (stereo not given) [Naproxen]	11	13.8
CCC(C)C1OC2(C=CC1C)CC1CC(CC=C(C)C(OC3CC(OC)C(OC4CC(OC)C(NC)C(C)O4)C(C)O3)C(C)C=CC=C3COC4C(O)C(C)=CC(C(=O)O1)C34O)O2 (stereo not given) [Emamectin B1a]	18.6	17.1
COc1cc2c(cc1OC)C13CCN4CC5=CCOC6CC(=O)N2C1C6C5CC43 (stereo not given) [Brucine]	12.1	8.1
C=CCOC(=O)C(C)(C)OC(=O)c1cc(-n2c(=O)cc(C(F)(F)F)n(C)c2=O)ccc1Cl [Butafenacil]	15.1	14.8
COCCOCCOCCO [2-(2-(2-Methoxyethoxy)ethoxy)ethanol]	6.68	6.67
COP(=O)(OC)SCn1c(=O)oc2cc(Cl)cnc21 [Azamethiphos]	11.6	11.4
Cc1[nH]c(=O)n(C(C)(C)C)c(=O)c1Cl [Terbacil]	12	11.8
C=C1CC(=CC)C(=O)OC2CC[N+]3([O-])CC=C(COC(=O)C1(C)O)C23 (stereo not given) [Seneciphylline N-oxide]	8.91	8.11
Cn1cnc2c1c(=O)n(CCCC(=O)O)c(=O)n2C [1-(3-carboxypropyl)-3,7-dimethylxanthine]	6.58	8.38
CCCCCCCCCOC(=O)c1ccccc1C(=O)OCCCCCCCCC [Dinonylphthalate]	20.5	19.7
CCC(C)(C)C(=O)OC1=C(c2ccc(Cl)cc2Cl)C(=O)OC12CCCCC2 [Spirodiclofen]	18	17.6
CCOC(=O)C(Cl)Cc1cc(-n2nc(C)n(C(F)F)c2=O)c(F)cc1Cl (stereo not given) [Carfentrazone-ethyl]	15.8	15.4
NCC1(CC(=O)O)CCCCC1 [Gabapentin]	6.17	7.38
CCC(=O)OC(Cc1ccccc1)(c1ccccc1)C(C)CN(C)C (stereo not given) [Propoxyphene]	16.8	12.5
CCNc1nc(NCC)[nH]c(=O)n1 [Simazine 2-Hydroxy]	9.04	7.39
CC(C)N(C(=O)SCC(Cl)=C(Cl)Cl)C(C)C [Triallate]	17.7	17.3
CC(=O)OC1(C(C)=O)CCC2C3CC(C)C4=CC(=O)CCC4(C)C3CCC21C (stereo not given) [Medroxyprogesteroneacetate]	15.8	15.4
CC1(C)CCC2(C(=O)O)CCC3(C)C(=CCC4C5(C)CCC(O)C(C)(CO)C5CCC43C)C2C1 (stereo not given) [Hederagenin]	15.9	17.2
CNCCCC(C#N)(c1ccc(OC)c(OC)c1)C(C)C (stereo not given) [D617]	12.4	10.8
CC(CCc1ccccc1)NCC(O)c1ccc(O)c(C(N)=O)c1 (stereo not given) [Labetalol]	12.8	10.6
O=C(Nc1ccc(F)cc1F)c1cccnc1Oc1cccc(C(F)(F)F)c1 [Diflufenican]	16.7	16.3
